Results: the C3SDB collision cross section collection
“And” between values parts separate entries of the source, which are not always exact repeats. Equal values may be shown once.

Details: [M+H-H2O]+; instrument: TW; calibrated with polyalanine and drug standards

collision cross section (N2) [Å²] | Structure (SMILES)
132.6 | NC[C@H](O)c1ccc(O)c(O)c1 [NOREPINEPHRINE]

Same assay, conditions: [M+H]+; instrument: TW; calibrated with polyalanine and drug standards

Structure (SMILES) | collision cross section (N2)
CC(=O)O[C@H]1C[C@H](O[C@H]2[C@@H](O)C[C@H](O[C@H]3[C@@H](O)C[C@H](O[C@H]4CC[C@@]5(C)[C@H](CC[C@@H]6[C@@H]5C[C@@H](O)[C@]5(C)[C@@H](C7=CC(=O)OC7)CC[C@]65O)C4)O[C@@H]3C)O[C@@H]2C)O[C@H](C)[C@H]1O[C@@H]1O[C@H](CO)[C@@H](O)[C@H](O)[C@H]1O [LANATOSIDE C] | 289.4 Å²
CCN1C[C@]2(OC(=O)c3ccccc3NC(C)=O)CC[C@H](OC)C34C1C(C[C@@H]32)[C@@]1(O)C[C@H](OC)[C@H]2C[C@@H]4[C@]1(O)[C@H]2OC [LAPPACONITINE] | 232.5 Å²
C[C@H]1COc2c(N3CCN(C)CC3)c(F)cc3c(=O)c(C(=O)O)cn1c23 [LEVOFLOXACIN] | 188.5 Å²
O=C1CC[C@]23/C=C/C(=O)NCCCCNCCCNC(=O)/C=C/c4ccc(c2c4)O[C@@H]3C1 [LUNARINE] | 203.4 Å²
OC[C@@H]1CCCN2CCCC[C@H]12 [LUPININE] | 135.3 Å²
CC(=O)O[C@]1(C(C)=O)CC[C@H]2[C@@H]3C[C@H](C)C4=CC(=O)CC[C@]4(C)[C@H]3CC[C@@]21C [MEDROXYPROGESTERONE ACETATE] | 197.2 Å²
CC(=O)[C@H]1CC[C@H]2[C@@H]3C[C@H](C)C4=CC(=O)CC[C@]4(C)[C@H]3[C@@H](O)C[C@]12C [MEDRYSONE] | 183.2 Å²
CC1=C2C(O)C(=O)OC3CC4C(C)(C)C(=O)C=C[C@]4(C)C(CC1)[C@]23C (some centres undefined) [MEROGEDUNIN] | 179.8 Å²
COc1c2occc2cc2ccc(=O)oc12 [METHOXSALEN] | 139.9 Å²
CC1=CC2C(CC1=O)C(C)=CCC2C(C)C (centres undefined) [MUUROLLADIE-3-ONE] | 138.5 Å²
c1cncc(C2=NCCC2)c1 [MYOSMINE] | 128.2 Å²
NC(N)=NC(=O)c1nc(Cl)c(N2CCCCCC2)nc1N [N,N-HEXAMETHYLENEAMILORIDE] | 174.7 Å²
CN1CCOC(c2ccccc2)c2ccccc2C1 (centres undefined) [NEFOPAM] | 157.1 Å²
Cc1c(NC(=O)c2cccnc2)c(=O)n(-c2ccccc2)n1C [NIFENAZONE] | 172.5 Å²
COc1ccc(-c2cc(=O)c3c(OC)c(OC)c(OC)c(OC)c3o2)cc1OC [NOBILETIN] | 191.3 Å²
C#C[C@]1(O)CC[C@H]2[C@@H]3CCC4=CC(=O)CC[C@@H]4[C@H]3CC[C@@]21CC [NORGESTREL] | 178.6 Å²
CN1CCCN=C1/C=C/c1cccc(O)c1 [OXANTEL] | 152.6 Å²
COc1cc2c(cc1-c1cc3cc4ccoc4cc3oc1=O)OCO2 [PACHYRRHIZIN] | 170.7 Å²
Oc1ccc(Cl)cc1 [PARACHLOROPHENOL] | 108.8 Å²
C1CCc2nnnn2CC1 [PENTYLENETETRAZOL] | 124.5 Å²
O=C1OC(c2ccc(O)cc2)(c2ccc(O)cc2)c2ccccc21 [PHENOLPHTHALEIN] | 172.1 Å²
CC(C)=CC1C(C(=O)OCc2cccc(Oc3ccccc3)c2)C1(C)C (centres undefined) [PHENOTHRIN] | 187.5 Å²
CCCCC1C(=O)N(c2ccccc2)N(c2ccccc2)C1=O [PHENYLBUTAZONE] | 172.4 Å²
COc1c(OC)c2occc2c2oc(=O)ccc12 [PIMPINELLIN] | 146.4 Å²
O=C(O)/C=C/C=C/c1ccc2c(c1)OCO2 [PIPERIC ACID] | 138.6 Å²
O=C(/C=C/C=C/c1ccc2c(c1)OCO2)N1CCCCC1 [PIPERINE] | 171.4 Å²
CCC1(c2ccccc2)C(=O)NCNC1=O [PRIMIDONE] | 146.9 Å²
CC[C@@H](C)C(=O)O[C@H]1[C@H](O)[C@H]2[C@@H](CN3C[C@@H](C)CC[C@H]3[C@@]2(C)O)[C@@H]2C[C@]34O[C@]5(O)[C@@H](OC(=O)[C@@](C)(O)CC)CC[C@@]3(C)[C@@H]5[C@@H](OC(C)=O)[C@@H](OC(C)=O)[C@H]4[C@@]21O [PROTOVERATRINE A] | 285.2 Å²
CC[C@@H](C)C(=O)O[C@H]1[C@H](O)[C@H]2[C@@H](CN3C[C@@H](C)CC[C@H]3[C@@]2(C)O)[C@@H]2C[C@]34O[C@]5(O)[C@@H](OC(=O)[C@](C)(O)[C@@H](C)O)CC[C@@]3(C)[C@@H]5[C@@H](OC(C)=O)[C@@H](OC(C)=O)[C@H]4[C@@]21O [PROTOVERATRINE B] | 287 Å²

Continued, values first:

collision cross section (N2) | Structure (SMILES)
132.9 Å² | C[N+](C)(C)C[C@H](O)CC(=O)[O-] [LEVOCARNITINE]
210.8 Å² | C[C@H](CCC(=O)O)[C@H]1CC[C@H]2[C@@H]3CC[C@@H]4C[C@H](O)CC[C@]4(C)[C@H]3CC[C@]12C [LITHOCHOLIC ACID]
209.7 Å² | CCCCCc1c2c(cc(O)c1C(=O)O)OC(=O)c1c(cc(OC)cc1C(=O)CCCC)O2 [LOBARIC ACID]
141.7 Å² | CCOC(=O)Nc1nc2ccccc2[nH]1 [LOBENDAZOLE]
189.8 Å² | O=c1c2cc(O)c(O)cc2oc2cc(O)c([C@@H]3O[C@H](CO)[C@@H](O)[C@H](O)[C@H]3O)c(O)c12 [MANGIFERIN]
171.2 Å² | COC(=O)Nc1nc2ccc(C(=O)c3ccccc3)cc2[nH]1 [MEBENDAZOLE]
171.2 Å² | CCN(CC)CCNC(=O)COc1ccc(OC)cc1 [MEFEXAMIDE]
181.8 Å² | O[C@@H](c1cc(C(F)(F)F)nc2c(C(F)(F)F)cccc12)[C@H]1CCCCN1 [MEFLOQUINE]
139 Å² | CNC[C@H](O)[C@@H](O)[C@H](O)[C@H](O)CO [MEGLUMINE]
117.2 Å² and 117.1 Å² | Cn1cc[nH]c1=S [METHIMAZOLE]
194.8 Å² | CN(Cc1cnc2nc(N)nc(N)c2n1)c1ccc(C(=O)N[C@@H](CCC(=O)O)C(=O)O)cc1 [METHOTREXATE]
147.6 Å² | C[C@](N)(Cc1ccc(O)c(O)c1)C(=O)O [METHYLDOPA]
130.6 Å² | CCC(C)C(NC)C(=O)O (centres undefined) [N-METHYLISOLEUCINE]
184.2 Å² and 170 Å² | CCn1cc(C(=O)O)c(=O)c2cc(F)c(N3CCNCC3)cc21 [NORFLOXACIN]
197.6 Å² | C#C[C@]1(OC(C)=O)CC[C@H]2[C@@H]3CCC4=C/C(=N/O)CC[C@@H]4[C@H]3CC[C@@]21CC [NORGESTIMATE]
163.1 Å² | CNCCC=C1c2ccccc2CCc2ccccc21 [NORTRIPTYLINE]
150.1 Å² | C=C(C)[C@H]1COc2cc3oc(=O)ccc3cc2O1 [OBLIQUIN]
157.4 Å² | COc1ccc(CC(=O)c2ccc(O)cc2O)cc1 [ONONETIN]

collision cross section (N2) | Structure (SMILES)
213.7 Å² | CN(C(=O)CN(CCO)CC(=O)N(C)C(C)(C)Cc1ccccc1)C(C)(C)Cc1ccccc1 [OXETHAZAINE]
183.4 Å² | COc1ccnc(CS(=O)c2nc3ccc(OC(F)F)cc3[nH]2)c1OC (centres undefined) [PANTOPRAZOLE]
219.1 Å² | OC1(c2ccc(Cl)c(C(F)(F)F)c2)CCN(CCCC(c2ccc(F)cc2)c2ccc(F)cc2)CC1 [PENFLURIDOL]
140.5 Å² | CCOc1ccc(NC(C)=O)cc1 [PHENACETIN]
163.4 Å² | Nc1ccc(C(=O)Oc2ccccc2)c(O)c1 [PHENYL AMINOSALICYLATE]
165.2 Å² | CC(N=C(NC#N)Nc1ccncc1)C(C)(C)C (centres undefined) [PINACIDIL]
161.1 Å² | CCn1cc(C(=O)O)c(=O)c2cnc(N3CCCC3)nc21 [PIROMIDIC ACID]
170.7 Å² | CN1C(C(=O)Nc2ccccn2)=C(O)c2ccccc2S1(=O)=O [PIROXICAM]
255.6 Å² | CC(C)c1c(O)c(-c2cc3c(c(C(C)C)c2O)CCC2C(C)(C)CCC[C@]32C)cc2c1CCC1C(C)(C)CCC[C@]21C (some centres undefined) [PODOTOTARIN]
205.8 Å² | CC(C)=CCc1c2c(c3occ(-c4ccc(O)c(O)c4)c(=O)c3c1O)C=CC(C)(C)O2 [POMIFERIN]
194 Å² | CC(=O)OCC(=O)[C@@]1(O)CC[C@H]2[C@@H]3CCC4=CC(=O)C=C[C@]4(C)[C@H]3[C@@H](O)C[C@@]21C [PREDNISOLONE ACETATE]
181.8 Å² | C[C@]12C=CC(=O)C=C1CC[C@@H]1[C@@H]2C(=O)C[C@@]2(C)[C@H]1CC[C@]2(O)C(=O)CO [PREDNISONE]
168.3 Å² | CCCn1cnc2c1c(=O)n(CCCCC(C)=O)c(=O)n2C [PROPENTOFYLLINE]
134.7 Å² | CCCc1cc(=O)[nH]c(=S)[nH]1 [PROPYLTHIOURACIL]
141.3 Å² | CCCc1cc(C(N)=S)ccn1 [PROTIONAMIDE]
155.8 Å² | CCc1nc(N)nc(N)c1-c1ccc(Cl)cc1 [PYRIMETHAMINE]
173.4 Å² | Cc1ncc(CSSCc2cnc(C)c(O)c2CO)c(CO)c1O [PYRITINOL]

Same assay, conditions: [M+Na]+; instrument: TW; calibrated with polyalanine and drug standards

Structure (SMILES) | collision cross section (N2) [Å²]
COC(C)(C)CCC[C@H](C)C/C=C/C(C)=C/C(=O)OC(C)C [METHOPRENE (S)] | 187
CC[C@H](C)C(=O)O[C@H]1CCC=C2C=C[C@H](C)[C@H](CC[C@@H]3C[C@@H](O)CC(=O)O3)[C@H]21 [MEVASTATIN] | 198.4
CC(C)(O)[C@@H]1[C@H]2OC(=O)[C@@H]1[C@]1(O)C[C@H]3O[C@]34C(=O)O[C@H]2[C@]14C [PICROTIN] | 173.7
C=C(C)[C@@H]1[C@H]2OC(=O)[C@@H]1[C@]1(O)C[C@H]3O[C@]34C(=O)O[C@H]2[C@]14C [PICROTOXININ] | 168.7
